One assay has as its target T1, DPEP1 (Homo sapiens, UniProt P16444).
T1 sequence (P16444 17-385): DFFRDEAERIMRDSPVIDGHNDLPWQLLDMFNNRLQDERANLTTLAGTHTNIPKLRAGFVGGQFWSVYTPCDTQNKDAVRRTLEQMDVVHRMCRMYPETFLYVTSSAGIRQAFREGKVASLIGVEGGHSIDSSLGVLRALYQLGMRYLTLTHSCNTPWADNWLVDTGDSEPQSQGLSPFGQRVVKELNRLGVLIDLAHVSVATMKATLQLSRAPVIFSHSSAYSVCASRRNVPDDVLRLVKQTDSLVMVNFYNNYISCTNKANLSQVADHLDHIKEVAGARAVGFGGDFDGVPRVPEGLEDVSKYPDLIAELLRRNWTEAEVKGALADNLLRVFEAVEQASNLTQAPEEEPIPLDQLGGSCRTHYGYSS
The assay can be described thus: Immunofluorescence binding of Alexa-488 conjugated peptides to Cos-1 cells transfected with human DPEP-1. The note with it: Alexa-488 conjugate, on ice 30 minutes. More on the design: expressed in transfected cells; host or cells: Cos-1. How it is done: 24 hours after transfection, DPEP-1 expressing cells weer reseeded on 24 well collagen coated (neutralized) plates and allowed to grow for 24 hours at 37° C. […] Cells were blocked with FBS/NBSA/Tween in PBS for 30 minutes on ice. Cells were then washed with PBS and incubated with Alexa-488 (green) conjugated LSALT, GFE-1, control peptide or DPEP-1 antibody ( 1/100) (Sigma) on ice for 30 minutes. After incubation, cells were washed with PBS and stained with DAPI for 4 minutes on ice. Cells were again washed with PBS, fixed using 4% paraformaldehyde and immunofluoresence microscopy was performed to assess binding. Proteins from human DPEP-1 transfected cells were isolated after 48 hours using octyl-glucoside/RIPA in the absence of protease inhibitors. […] Values shown are the mean ±s.e.m. from six independent experiments; asterisks (***) indicate P<0.001 as compared with DPEP-1 transfected cells (one-way ANOVA with the Neuman-Keuls post-test)[…]. Proteins from transfected cells were isolated after 48 hours using octyl-glucoside/RIPA lysis buffer and western blot analysis was performed to assess DPEP-1 expression using DPEP-1 antibody (Sigma). […]

Assay [1] addresses T2, human membrane dipeptidase (DPEP-1) (Homo sapiens, UniProt P16444).
T2 construct: expressed in transfected cells; host or cells: Cos-1
T2 sequence (P16444 17-385): T1 sequence (P16444 17-385)
The experiment in a line: Membrane dipeptidase enzyme activity assay (Gly-D-Phe, fluorometric). It is filed as biochemical. The settings on record: lysates of transfected Cos1 cells, substrate Gly-D-Phe. The procedure:
24 hours after transfection, DPEP-1 expressing cells weer reseeded on 24 well collagen coated (neutralized) plates and allowed to grow for 24 hours at 37° C. […] Cells were blocked with FBS/NBSA/Tween in PBS for 30 minutes on ice. […] After incubation, cells were washed with PBS and stained with DAPI for 4 minutes on ice. Cells were again washed with PBS, fixed using 4% paraformaldehyde and immunofluoresence microscopy was performed to assess binding. Proteins from human DPEP-1 transfected cells were isolated after 48 hours using octyl-glucoside/RIPA in the absence of protease inhibitors. […] Proteins from transfected cells were isolated after 48 hours using octyl-glucoside/RIPA lysis buffer and western blot analysis was performed to assess DPEP-1 expression using DPEP-1 antibody (Sigma).
The fluorescence signal generated from the conversion of D-Phe to […] in the presence of D-aminoacidoxidase and peroxidase was measured using a fluorescence plate reader.
Proteins from DPEP-1 transfected cells were isolated after 48 hours using octyl-glucoside/RIPA lysis buffer and western blot analysis was performed to assess DPEP-1 expression using a DPEP-1 specific antibody (Proteintech) (FIG. 24B).

In the next assay the test system is serum cytokines. The assay can be described thus: Plasma cytokine levels after LPS, Luminex Cytokine Arrays. The note with it: SCID mice, LPS 0.5 mg/kg i.p., 4 hours. It is filed as in vivo, mouse. The procedure:
6-8 weeks old SCID mice were given an intraperitoneal injection of LPS (0.5 mg/kg) 5 minutes prior to intravenous injection of LSALT peptide or a control peptide. 4 hours following injection of LPS, blood was collected by cardiac puncture and changes in plasma cytokine levels were assessed using Luminex Cytokine Arrays. Bar graphs show the levels of different inflammatory mediators released in the plasma in the presence or absence of LSALT peptide and control peptide.
6-8 weeks old SCID mice were given an intraperitoneal injection of LPS (0.5 mg/kg) 5 minutes prior to intravenous injection of LSALT peptide or a control peptide. 4 hours following injection of LPS, blood was collected by cardiac puncture and changes in plasma cytokine levels were assessed using Luminex Cytokine Arrays. Bar graphs show the level of the anti-inflammatory cytokine IL-10 released in the plasma in LSALT peptide or control peptide in two independent experiments.

“Also recorded” adds a separate entry of the source. Ends that are not written are not given here.

On to H-LSALTPSPSWLKYKAL [LSALT], for which the “binding of fluorescently labelled peptide to human DPEP-1 transfected Cos-1 cells” value on DPEP1 was “Binds; also recorded: Fluorescent peptide binding is only seen with DPEP1 transfection”. In addition, the “inhibition of human DPEP1 enzymatic activity” value in assay [1] is reported as “do not inhibit membrane dipeptidase enzyme activity”. Further, in the assay with serum cytokines, the “levels of serum cytokines in response to LPS” value is “attenuates the levels of a number of different serum cytokines” and the “plasma IL-10 in response to LPS” value is “increases the production of the anti-inflammatory mediator IL-10”.
